Common to all, as to settings: stereoisomer not certain
The nature of series [1]: RP, Merck Supelco Ascentis Express C18, 100 × 2.1 mm, 2 µm, 40 °C, 0.2 mL/min, estimated dead time 1.1 min; A: water + 0.1% formic acid, pH 3; B: acetonitrile + 0.1% formic acid, pH 3; gradient (min/%B) 0/5 2/5 17/99.9 20/99.9.
Series [2] can be described thus: RP, Merck Supelco Ascentis Express C18, 100 × 2.1 mm, 2 µm, 40 °C, 0.4 mL/min, estimated dead time 0.55 min; A: water + 0.1% formic acid, pH 3; B: acetonitrile + 0.1% formic acid, pH 3; gradient (min/%B) 0/5 2/5 17/99.9 20/99.9.
Assay in series [3]: as above
This is another data set of the same source.

Series [4] is described as follows: RP, Merck Supelco Ascentis Express C18, 100 × 2.1 mm, 2 µm, 39 °C, 0.3 mL/min, estimated dead time 0.73 min; A: water + 0.1% formic acid, pH 3; B: acetonitrile + 0.1% formic acid, pH 3; gradient (min/%B) 0/5 2/5 17/99.9 20/99.9.
Series [5] in a line: RP, Merck Supelco Ascentis Express C18, 100 × 2.1 mm, 2 µm, 40 °C, 0.2 mL/min, estimated dead time 1.1 min; A: water + 0.1% formic acid, pH 3; B: acetonitrile + 0.1% formic acid, pH 3; gradient (min/%B) 0/5 2/5 17/99.9 20/99.9. This is another data set of the same source.
A short description of series [6]: RP, Merck Supelco Ascentis Express C18, 100 × 2.1 mm, 2 µm, 40 °C, 0.35 mL/min, estimated dead time 0.63 min; A: water + 0.1% formic acid, pH 3; B: acetonitrile + 0.1% formic acid, pH 3; gradient (min/%B) 0/5 2/5 17/99.9 20/99.9.
A short description of series [7]: RP, Merck Supelco Ascentis Express C18, 100 × 2.1 mm, 2 µm, 40 °C, 0.25 mL/min, estimated dead time 0.88 min; A: water + 0.1% formic acid, pH 3; B: acetonitrile + 0.1% formic acid, pH 3; gradient (min/%B) 0/5 2/5 17/99.9 20/99.9.

`O=C(O)c1ccccc1` [BENZOATE]: the LC retention time is 7.03 min in series [1]; 5.23 min in series [2]; 5.28 min in series [3]; 4.34 min in series [4]; 7.03 min in series [5]; 5.55 min in series [6]. In addition, the LC retention time in series [7] was 6.4 min.
For the molecule `O=C(O)CCCCC1SCC2NC(=O)NC21` (centres undefined) [BIOTIN], the LC retention time is 5.44 min in series [1]; 4.11 min in series [2]; 4.14 min in series [3]; 4.62 min in series [4]; 5.44 min in series [5]; 4.34 min in series [6]. Moreover, the LC retention time in series [7] is 4.96 min.
As to `CC(CCC(=O)O)C1CCC2C3C(O)CC4CC(O)CCC4(C)C3CC(O)C12C` (centres undefined) [CHOLATE], the LC retention time in series [1] was 10.3 min; in series [2], 8.9 min; in series [3], 8.94 min; in series [4], 9.4 min; in series [5] it was 10.3 min; in series [6], 9.14 min. Besides, the LC retention time in series [7] was 9.77 min.
Take `CC12CCC(=O)C=C1CCC1C2CCC2(C)C1CCC2(O)C(=O)CO` (centres undefined) [CORTEXOLONE]: the LC retention time was 9.2 min in series [1]; 7.69 min in series [2]; 7.73 min in series [3]; 8.25 min in series [4]; 9.16 min in series [5]; 7.95 min in series [6]. Further, the LC retention time in series [7] is 8.66 min.
Regarding `CC(=O)OCC(=O)C1(O)CCC2C3CCC4=CC(=O)CCC4(C)C3C(O)CC21C` (centres undefined) [CORTISOL 21-ACETATE], the LC retention time in series [1] was 9.62 min; in series [2], 8.05 min; in series [3], 8.09 min; in series [4], 8.64 min; in series [5] it was 9.62 min; in series [6] it was 8.33 min. Also, the LC retention time in series [7] is 9.05 min.
Consider `CC12CCC(=O)C=C1CCC1C2C(O)CC2(C)C1CCC2(O)C(=O)CO` (centres undefined) [CORTISOL], for which the LC retention time in series [1] is 8.04 min; in series [2] it was 6.65 min; in series [3], 6.69 min; in series [4] it was 7.17 min; in series [5], 8.03 min; in series [6] it was 6.88 min. Besides, the LC retention time in series [7] was 7.53 min.
With `CC12CCC(=O)C=C1CCC1C2C(=O)CC2(C)C1CCC2(O)C(=O)CO` (centres undefined) [CORTISONE], the LC retention time is 8.09 min in series [1]; 6.69 min in series [2]; 6.73 min in series [3]; 7.21 min in series [4]; 8.07 min in series [5]; 6.91 min in series [6]. In series [7], the LC retention time was 7.56 min.
With `Nc1nc2c(ncn2C2CC(O)C(CO)O2)c(=O)[nH]1` (centres undefined) [DEOXYGUANOSINE], the LC retention time in series [1] is 1.44 min; in series [2], 0.707 min; in series [3], 0.703 min; in series [4], 0.943 min; in series [5], 1.47 min; in series [6], 0.82 min. In addition, the LC retention time in series [7] is 1.13 min.
As for `O=c1ccn(C2CC(O)C(CO)O2)c(=O)[nH]1` (centres undefined) [DEOXYURIDINE], the LC retention time in series [1] was 1.41 min; in series [2] it was 0.68 min; in series [3], 0.697 min; in series [4], 0.953 min; in series [5] it was 1.42 min; in series [6] it was 0.81 min. Moreover, in series [7], the LC retention time was 1.12 min.
With `CC1NC(=O)NC1CCCCCC(=O)O` (centres undefined) [DETHIOBIOTIN], the LC retention time in series [1] is 5.96 min; in series [2], 4.54 min; in series [3] it was 4.58 min; in series [4], 5.15 min; in series [5], 5.92 min; in series [6] it was 4.81 min. Further, the LC retention time in series [7] is 5.43 min.
As to `CCC=CCC=CCC=CCC=CCC=CCCCC(=O)O` [EICOSAPENTAENOATE], the LC retention time in series [1] was 15.9 min; in series [2], 13.9 min; in series [3], 13.9 min; in series [4], 14.7 min; in series [5], 15.9 min; in series [6], 14.2 min. Moreover, the LC retention time in series [7] was 15.2 min.
Take `CCC(C(=O)O)C(=O)O` [ETHYLMALONATE]: the LC retention time was 3.01 min in series [1]; 1.48 min in series [2]; 1.48 min in series [3]; 2.06 min in series [4]; 3.05 min in series [5]; 1.72 min in series [6]. The LC retention time in series [7] was 2.31 min.
Take `COc1cc(C=CC(=O)O)ccc1O` [FERULATE]: the LC retention time in series [1] was 6.33 min; in series [2], 4.81 min; in series [3], 4.85 min; in series [4], 5.39 min; in series [5], 6.32 min; in series [6], 5.07 min. In addition, the LC retention time in series [7] is 5.78 min.
In the case of `Nc1nc2ncc(CNc3ccc(C(=O)NC(CCC(=O)O)C(=O)O)cc3)nc2c(=O)[nH]1` (centres undefined) [FOLATE], the LC retention time in series [1] was 4.66 min; in series [2], 3.58 min; in series [3] it was 3.58 min; in series [4] it was 3.99 min; in series [5] it was 4.69 min; in series [6], 3.76 min. Further, the LC retention time in series [7] was 4.27 min.
Regarding `CCCCCCCCCCCCCC(=O)OCC(O)CO` (centres undefined) [GLYCEROL-MYRISTATE], the LC retention time was 15.4 min in series [1]; 13.2 min in series [2]; 13.3 min in series [3]; 14 min in series [4]; 15.3 min in series [5]; 13.6 min in series [6]. Moreover, in series [7], the LC retention time is 14.6 min.
For the molecule `CC(CCC(=O)NCC(=O)O)C1CCC2C3C(O)CC4CC(O)CCC4(C)C3CCC12C` (centres undefined) [GLYCOCHENODEOXYCHOLATE], the LC retention time in series [1] was 10.5 min; in series [2], 9.05 min; in series [3], 9.09 min; in series [4], 9.57 min; in series [5], 10.4 min; in series [6] it was 9.28 min. The LC retention time in series [7] was 9.94 min.
Take `CC(CCC(=O)NCC(=O)O)C1CCC2C3C(O)CC4CC(O)CCC4(C)C3CC(O)C12C` (centres undefined) [GLYCOCHOLATE]: the LC retention time in series [1] was 9.22 min; in series [2], 7.96 min; in series [3], 8 min; in series [4], 8.42 min; in series [5], 9.2 min; in series [6] it was 8.17 min. The LC retention time in series [7] is 8.75 min.
With `Nc1nc2nc[nH]c2c(=O)[nH]1` [GUANINE], the LC retention time in series [1] was 1.37 min; in series [2], 0.693 min; in series [3], 0.663 min; in series [4], 0.883 min; in series [5], 1.36 min; in series [6], 0.757 min. Also, the LC retention time in series [7] was 1.09 min.
As for `O=C(O)CNC(=O)c1ccccc1` [HIPPURATE], the LC retention time in series [1] was 5.12 min; in series [2], 3.42 min; in series [3], 3.45 min; in series [4], 4.09 min; in series [5], 5.11 min; in series [6], 3.72 min. Moreover, the LC retention time in series [7] was 4.54 min.
As for `O=C(O)Cc1cc(O)ccc1O` [HOMOGENTISATE], the LC retention time in series [1] is 2.38 min; in series [2], 1.16 min; in series [3], 1.22 min; in series [4] it was 1.64 min; in series [5], 2.48 min; in series [6], 1.35 min. Also, in series [7], the LC retention time was 1.92 min.
With `COc1cc(CC(=O)O)ccc1O` [HOMOVANILLATE], the LC retention time in series [1] is 5.43 min; in series [2] it was 3.93 min; in series [3] it was 3.96 min; in series [4] it was 4.5 min; in series [5] it was 5.42 min; in series [6], 4.18 min. Besides, the LC retention time in series [7] was 4.9 min.
On to `O=C(O)C(O)Cc1ccc(O)cc1` (centres undefined) [HYDROXYPHENYLLACTATE], for which the LC retention time in series [1] is 5.43 min; in series [2] it was 3.93 min; in series [3], 3.96 min; in series [4], 4.5 min; in series [5] it was 5.42 min; in series [6] it was 4.18 min. In addition, in series [7], the LC retention time was 4.9 min.

(Values after the RepoRT retention time repository (doi:10.1007/s00216-021-03828-0).)
